{
  "source": "paper PMC5748155",
  "about": "(Journal of medicinal chemistry, 2017)",
  "details_in_all_cases": "relative to compound 2",
  "key": {"[1]": {"test_system": "HCV replicon D168V variant", "type": "cell-based, Hepatitis C virus"}, "wild-type HCV replicon": {"test_system": "wild-type HCV replicon", "type": "cell-based, Hepatitis C virus"}, "GT1a WT NS3/4A Protease": {"biological_target": "GT1a WT NS3/4A Protease (Hepatitis C virus genotype 1a, UniProt P27958)", "assay": "Enzyme inhibition assay, wild-type GT1a protease", "type": "biochemical"}, "[2]": {"test_system": "HCV replicon D168A variant", "type": "cell-based, Hepatitis C virus"}, "[3]": {"test_system": "NS3/4A protease WT and variants", "assay": "Enzyme inhibition assays, statements across WT protease and variants", "type": "biochemical, Hepatitis C virus"}},
  "data": [
    {"smiles": "COc1ccc2nc(C)c(O[C@@H]3C[C@H]4C(=O)N[C@]5(C(=O)NS(=O)(=O)C6CC6)C[C@H]5/C=C\\CCCCC[C@H](NC(=O)OC(C)(C)C)C(=O)N4C3)nc2c1", "note": "[Compound 18b]", "values": [
      {"measurement": "fold improvement in replicon potency against D168V variant", "setting": "[1]", "result": "~ 2 fold"}
    ]},
    {"smiles": "CCc1nc2ccc(OC)cc2nc1O[C@@H]1C[C@H]2C(=O)N[C@]3(C(=O)NS(=O)(=O)C4CC4)C[C@H]3/C=C\\CCCCC[C@H](NC(=O)OC3CCCC3)C(=O)N2C1", "note": "[Compound 22a, Cyclopentyl ((2R,6S,13aS,14aR,16aS,Z)-14a-((cyclopropylsulfonyl)carbamoyl)-2-((3-ethyl-7-methoxyquinoxalin-2-yl)oxy)-5,16-dioxo-1,2,3,5,6,7,8,9,10,11,13a,14,14a,15,16,16a-hexadecahydrocyclopropa[e]pyrrolo[1,2-a][1,4]diazacyclopentadecin-6-yl)carbamate]", "values": [
      {"measurement": "fold enhanced replicon potency against WT HCV", "setting": "wild-type HCV replicon", "result": 2, "unit": "fold"},
      {"measurement": "fold increase in biochemical potency against WT protease", "setting": "GT1a WT NS3/4A Protease", "result": 2, "unit": "fold"},
      {"measurement": "fold enhanced replicon potency against D168A variant", "setting": "[2]", "result": 2, "unit": "fold"}
    ]},
    {"smiles": "CCc1nc2ccccc2nc1O[C@@H]1C[C@H]2C(=O)N[C@]3(C(=O)NS(=O)(=O)C4CC4)C[C@H]3/C=C\\CCCCC[C@H](NC(=O)OC(C)(C)C)C(=O)N2C1", "note": "[Compound 18g]", "values": [
      {"measurement": "fold decrease in biochemical potency", "setting": "[3]", "result": "about 2 fold"}
    ]}
  ]
}
